Laboratory results: PubChem BioAssay AID1259411 (Chemical Carcinogenesis Research Information System (CCRIS), 2018)
Calls of active or inactive are those of the source. The rule behind the calls is not given here.

Tested on: rodent carcinogenicity bioassays, tumor incidence
Test: CCRIS carcinogenicity studies
Method in brief: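 NCI-built, expert-reviewed records of carcinogenicity and related test outcomes (mutagenicity, tumor promotion/inhibition) compiled from published and report sources, historical span 1985-2011, not updated.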

C/C=C/c1ccc(O)c(OC)c1 was tested, and the carcinogen call (Species: Mouse, Strain/Sex: B6C3F1 /Female (50/Group), Route: Oral, Dose: 0, 75, 150, 300 mg/kg in corn oil, by gavage, 5 d/wk for 2 yr, Dose: 0, 75, 150, 300 mg/kg in corn oil, by gavage, 5 d/wk for 2 yr) was “inactive; negative. (authors describe as equivocal evidence based on incidence of histiocy”, the carcinogen call (Species: Mouse, Strain/Sex: B6C3F1 /Male (50/Group), Route: Oral, Dose: 0, 75, 150, 300 mg/kg in corn oil, by gavage, 5 d/wk for 2 yr, Dose: 0, 75, 150, 300 mg/kg in corn oil, by gavage, 5 d/wk for 2 yr, Tumor Site: Type of Lesion: Liver: hepatocellular adenoma (24/50, 35/50, 37/50, 33/50), hepatocellular carcinoma (8/50, 18/50, 19/50, 18/50), hepato, Tumor Site: Type of Lesion: Liver: hepatocellular adenoma (24/50, 35/50, 37/50, 33/50), hepatocellular carcinoma (8/50, 18/50, 19/50, 18/50), hepato) was “active; positive. (authors describe as clear evidence)” and the carcinogen call (Species: Rat, Strain/Sex: F344/N / Female (50/Group), Route: Oral, Dose: 0, 75, 150, 300 mg/kg in corn oil, by gavage, 5 d/wk for 2 yr, Dose: 0, 75, 150, 300 mg/kg in corn oil, by gavage, 5 d/wk for 2 yr) was “inactive; negative”. For the same compound, the carcinogen call (Species: Rat, Strain/Sex: F344/N / Male (50/Group), Route: Oral, Dose: 0, 75, 150, 300 mg/kg in corn oil, by gavage, 5 d/wk for 2 yr, Dose: 0, 75, 150, 300 mg/kg in corn oil, by gavage, 5 d/wk for 2 yr) was “inactive; negative. (authors describe as equivocal evidence based on incidence of thymoma,”.
Nc1nc(N)c2nc(-c3ccccc3)c(N)nc2n1 was tested, and the carcinogen call (Species: MOUSE, Strain/Sex: B6C3F1/FEMALE, Route: ORAL, Dose: 0, 100, 200, 400 PPM IN FEED FOR 104 WK (STUDY DURATION: 2 YR), Dose: 0, 100, 200, 400 PPM IN FEED FOR 104 WK (STUDY DURATION: 2 YR), Tumor Site: Type of Lesion: LIVER: HEPATOCELLULAR ADENOMA) was “active; positive”, the carcinogen call (Species: MOUSE, Strain/Sex: B6C3F1/FEMALE, Route: ORAL, Dose: 0, 400 PPM IN FEED FOR 104 WK (STUDY DURATION: 2 YR), Tumor Site: Type of Lesion: LIVER: HEPATOCELLULAR ADENOMA) was “active; positive” and the carcinogen call (Species: MOUSE, Strain/Sex: B6C3F1/MALE, Route: ORAL, Dose: 0, 100, 200, 400 PPM IN FEED FOR 104 WK (STUDY DURATION: 2 YR), Dose: 0, 100, 200, 400 PPM IN FEED FOR 104 WK (STUDY DURATION: 2 YR), Tumor Site: Type of Lesion: LIVER: HEPATOCELLULAR CARCINOMA) was “active; positive”. The carcinogen call (Species: MOUSE, Strain/Sex: B6C3F1/MALE, Route: ORAL, Dose: 0, 400 PPM IN FEED FOR 104 WK (STUDY DURATION: 2 YR), Tumor Site: Type of Lesion: LIVER: HEPATOCELLULAR ADENOMA) was “active; positive”, the carcinogen call (Species: RAT, Strain/Sex: F344/FEMALE, Route: ORAL, Dose: 0, 150, 300, 600 PPM IN FEED FOR 104 WK (STUDY DURATION: 2 YR), Dose: 0, 150, 300, 600 PPM IN FEED FOR 104 WK (STUDY DURATION: 2 YR)) was “inactive; negative” and the carcinogen call (Species: RAT, Strain/Sex: F344/MALE, Route: ORAL, Dose: 0, 150, 300, 600 PPM IN FEED FOR 104 WK (STUDY DURATION: 105 WK), Dose: 0, 150, 300, 600 PPM IN FEED FOR 104 WK (STUDY DURATION: 105 WK), Tumor Site: Type of Lesion: LIVER: ADENOMA) was “equivocal”.
With CCNNCC the carcinogen call (Species: RAT, Route: PRE-NATAL EXP, Tumor Site: Type of Lesion: BRAIN, NERVOUS SYSTEM) was “active; positive”.
With CCO[Si](CCCOCC1CO1)(OCC)OCC (centres undefined) the carcinogen call (Species: MOUSE, Strain/Sex: C3H/MALE, Route: DERMAL, Dose: 0, 2 MG IN ACETONE 3/WK FOR DURATION OF STUDY (STUDY DURATION: LIFETIME)) was “inactive; negative”.
COc1ccccc1O was tested, and the carcinogen call (Species: RAT, Strain/Sex: SPRAGUE-DAWLEY/FEMALE, Route: GAVAGE, Dose: 0, 20, 50, 200 MG/KG/D IN 0.5% CARBOXYMETHYLCELLULOSE SUSPENSION FOR 103 WK (STUDY DURATION: 103 WK), Dose: 0, 20, 50, 200 MG/KG/D IN 0.5% CARBOXYMETHYLCELLULOSE SUSPENSION FOR 103 WK (STUDY DURATION: 103 WK)) was “inactive; negative” and the carcinogen call (Species: RAT, Strain/Sex: SPRAGUE-DAWLEY/MALE, Route: GAVAGE, Dose: 0, 20, 50, 200 MG/KG/D IN 0.5% CARBOXYMETHYLCELLULOSE SUSPENSION FOR 103 WK (STUDY DURATION: 103 WK), Dose: 0, 20, 50, 200 MG/KG/D IN 0.5% CARBOXYMETHYLCELLULOSE SUSPENSION FOR 103 WK (STUDY DURATION: 103 WK)) was “inactive; negative”.
In the case of Cc1ccc(N=Nc2c(O)c(S(=O)(=O)O)cc3cc(S(=O)(=O)O)ccc23)c(C)c1, the carcinogen call (Species: MOUSE, Route: ORAL, Tumor Site: Type of Lesion: LIVER) was “active; positive” and the carcinogen call (Species: RAT, Route: ORAL, Tumor Site: Type of Lesion: LIVER) was “active; positive”.
In the case of Nc1ccn([C@@H]2O[C@H](CO)[C@@H](O)C2O)c(=O)n1 (some centres undefined), the carcinogen call (Species: RAT, Strain/Sex: SPRAGUE-DAWLEY/FEMALE, Route: INTRAPERITONEAL, Dose: 0, 5, 25 MG/KG IN PHYSIOLOGICAL SALINE 5/WK FOR 72 WK (STUDY DURATION: LIFETIME), Dose: 0, 5, 25 MG/KG IN PHYSIOLOGICAL SALINE 5/WK FOR 72 WK (STUDY DURATION: LIFETIME)) was “inactive; negative”, the carcinogen call (Species: RAT, Strain/Sex: SPRAGUE-DAWLEY/FEMALE, Route: INTRAPERITONEAL, Dose: 0, 500, 1500 MG/KG IN PHYSIOLOGICAL SALINE ON D 1, 3, 5 WITHIN 3 MO, CYCLE REPEATED 6 TIMES (STUDY DURATION: LIFETIME), Dose: 0, 500, 1500 MG/KG IN PHYSIOLOGICAL SALINE ON D 1, 3, 5 WITHIN 3 MO, CYCLE REPEATED 6 TIMES (STUDY DURATION: LIFETIME)) was “inactive; negative” and the carcinogen call (Species: RAT, Strain/Sex: SPRAGUE-DAWLEY/MALE, Route: INTRAPERITONEAL, Dose: 0, 5, 25 MG/KG IN PHYSIOLOGICAL SALINE 5/WK FOR 72 WK (STUDY DURATION: LIFETIME), Dose: 0, 5, 25 MG/KG IN PHYSIOLOGICAL SALINE 5/WK FOR 72 WK (STUDY DURATION: LIFETIME)) was “inactive; negative”. For the same compound, the carcinogen call (Species: RAT, Strain/Sex: SPRAGUE-DAWLEY/MALE, Route: INTRAPERITONEAL, Dose: 0, 500, 1500 MG/KG IN PHYSIOLOGICAL SALINE ON D 1, 3, 5 WITHIN 3 MO, CYCLE REPEATED 6 TIMES (STUDY DURATION: LIFETIME), Dose: 0, 500, 1500 MG/KG IN PHYSIOLOGICAL SALINE ON D 1, 3, 5 WITHIN 3 MO, CYCLE REPEATED 6 TIMES (STUDY DURATION: LIFETIME)) was “inactive; negative”.
O[C@@H]1[C@@H]2O[C@@H]2C=C[C@H]1O was tested, and the carcinogen call (Species: MOUSE, Strain/Sex: SWISS/FEMALE, Route: INTRAPERITONEAL, Dose: 0, 2.7, 13.7 UMOL ADMINISTERED AS 3 UNEQUAL DOSES (1/7, 2/7, AND 4/7 OF THE TOTAL DOSE) OVER A 2-WK PERIOD (STUDY DURATI, Dose: 0, 2.7, 13.7 UMOL ADMINISTERED AS 3 UNEQUAL DOSES (1/7, 2/7, AND 4/7 OF THE TOTAL DOSE) OVER A 2-WK PERIOD (STUDY DURATI, Tumor Site: Type of Lesion: LUNG: ADENOMA) was “active; positive”, the carcinogen call (Species: MOUSE, Strain/Sex: SWISS/FEMALE, Route: INTRAPERITONEAL, Dose: 0, 13.7 UMOL ADMINISTERED AS 3 UNEQUAL DOSES (1/7, 2/7, AND 4/7 OF THE TOTAL DOSE) OVER A 2-WK PERIOD (STUDY DURATION: 2, Tumor Site: Type of Lesion: LUNG: ADENOMA) was “active; positive” and the carcinogen call (Species: MOUSE, Strain/Sex: SWISS/MALE, Route: INTRAPERITONEAL, Dose: 0, 2.7, 13.7 UMOL ADMINISTERED AS 3 UNEQUAL DOSES (1/7, 2/7, AND 4/7 OF THE TOTAL DOSE) OVER A 2-WK PERIOD (STUDY DURATI, Dose: 0, 2.7, 13.7 UMOL ADMINISTERED AS 3 UNEQUAL DOSES (1/7, 2/7, AND 4/7 OF THE TOTAL DOSE) OVER A 2-WK PERIOD (STUDY DURATI, Tumor Site: Type of Lesion: LUNG: ADENOMA) was “active; positive”. For the same compound, the carcinogen call (Species: MOUSE, Strain/Sex: SWISS/MALE, Route: INTRAPERITONEAL, Dose: 0, 13.7 UMOL ADMINISTERED AS 3 UNEQUAL DOSES (1/7, 2/7, AND 4/7 OF THE TOTAL DOSE) OVER A 2-WK PERIOD (STUDY DURATION: 2, Tumor Site: Type of Lesion: LUNG: ADENOMA) was “active; positive”.
